The values below come from US4621077A, “Pharmacologically active biphosphonates, process for the preparation thereof and pharmaceutical compositions therefrom” (Istituto Gentili S.p.A., priority 1982, dated 1986).

One series is described as follows: Solubility in water. Format: physicochemical.
Series [1] deals with patients with widespread neoplastic osteolysis. Particulars: six patients, 4 mg/day. The method, then:
(§1) The substance ABDP, aminobutanediphosphonate has been used for venous infusion, 0.5-25 mg/day dissolved in 500 cc of 5% glucose solution in the following conditions: […]

In series [2] the test system is patients with Paget's disease. Here is the method:
as §1

The subject of series [3] is skull cells (lactate production). Kind of series: cells. It counts as cell-based, Wistar rats. Here is the method: (§2) Cellular culture: the cells are cultured according to the method described by Fast et al, (Biochem. J. 172, 97-107 (1978)). By way of summary, the skulls removed from Wistar rats, one day old, are digested with collagenase. The cells set free are placed on a plate with concentration of 200,000 cells per cc of medium in disks "clusters" suitable for culture, the plates having 24 wells of 1.6 cm in diameter containing 0.5 cc of medium. The cells are cultivated in the essential minimum medium containing 10% of foetal calf serum in an atmosphere of 5% CO2 at 37° up to the eighth day. The bisphosphonates are added on the first day up to the end of the experiment. The medium is changed on the first, fourth and seventh day.
On the seventh day, the medium is changed and the cells are incubated for 16 hours. The lactate produced during this period is measured in an extract in HClO4 of the medium using lactatodehydrogenase.

Series [4] relates to bone reabsorption (metaphyseal bone density). Put plainly: Metaphyseal bone density / inhibition of bone reabsorption in rats treated for 7 days. It counts as in vivo. Particulars: for metaphysical density: 7 days, rats.
Series [5] deals with inhibition of the bone reabsorption.
In series [6] the test system is patients with primary hyperparathyroidism. The method, then: The substance ABDP, aminobutanediphosphonate has been used for venous infusion, 0.5-25 mg/day dissolved in 500 cc of 5% glucose solution in the following conditions:
Eight individuals having different degrees of calcemia varying to the extent of 17-11 mg%, were treated.

Series [7] has as its system patients with tumoral osteolysis.
The next series concerns skull cells. Kind of series: cells. Format: cell-based, Wistar rats. The method, then:
as §2
The cells are counted with a Coulter counter after they have been set free from the disks by digestion with a mixture of collagenase and trypsin.

The next series has as its system injection sites / skin. Kind of series: Necrosis at the injection sites in rats (local skin toxicity). The text has this: The symbol "x" represents a conventional score, that is "x" meand slight necrosis, "xx" means severe necrosis, "xxx" means very severe necrosis.
Series [8] concerns bone reabsorption and mineralization (tibia, trabecular metaphysis). It counts as in vivo, Wistar rats. Here is the method:
Groups of five Wistar rats of weight 180-200 grams are treated for a period of seven days with 0.1, 1.0 and 10 mg of P/kg of the following biphosphonic acids:
The animals kept as a control were administered the solvent with NaCl. All the treatments were carried out by the subcutaneous route. […] The animals were fed with Altromine 1314 containing 1.1 g/100 g P and 250 IU/100 g of vitamin D3. On the eighth day, the animals were killed and the tibia was removed and fixed in 50% ethanol. The tibiae were then dehydrated in increasing concentration of ethanol and allowed to soak in methylmethacrylate after the addition of Plastoid N. Frontal sections were removed and cut to a thickness of 70-80 μm and then the sections were submitted to microradiography. This procedure permitted to evaluate the density of the mineral in the trabecular metaphysis according to the method of Shenk et al., Calc. Tiss. Res. 11, 196-214, 1973).
One animal per group has been evaluated.

Another series can be described thus: in vivo. Particulars: mouse, Swiss mice, read-out: DL50 (the source's name). Here is the method:
For this study Swiss mice, both male and female, have been utilized: during the experiment, the animals are fed according to the method with Altromin in the form of tablets. For the oral and intraperitoneal administration, there are used 5% gum arabic solutions while saline solutions of pH 4 are used for the intravenous injections.
The preliminary values of DL50 are calculated according to a graphic method.

The conditions of series [9]: 37° C., two days, control 29, prior to incubation 114.7. Here is the method:
A model system is used to evaluate the ability of the phosphonates to inhibit the formation of crystals in inorganic solutions. Three solutions are prepared according to Fleisch.
The pH is brought to 7.4 by means of potassium hydroxide. The concentration of Ca^++ was 6.7 mg%, a level similar to the calcium in blood which has been subjected to untrafiltration and the concentration of the inorganic phosphate Pi give a product Ca^++ ×Pi=80. The solution was analyzed for Ca^++ and Pi and was distributed in Erlenmeyer flasks 12 cc each. The flasks were divided in groups as follows:
and then they are incubated under stirring at 37° C. for two days.
At the end of incubation, the solutions are passed through "millipore filters" for the purpose of retaining the ctystals which are formed during the incubation; the filtrate then is analyzed for Ca^++ and Pi. The results are also reported in Table 2 as the product of Ca^++ x Pi in the solution at the end of the experiment.

Where [10] appears, read: Rattus norvegicus, 16 h, read-out: Effect on the production of lactate ± S.E.M.
The mark [11] stands for this setting: two patients, 50 mg, three days.
[12] abbreviates: Rattus norvegicus, read-out: Effect on the cellular number ± S.E.M.

Entries after “also recorded” stand apart in the source; their conditions may differ. Read-outs that look alike come from different tables or passages of the source.

With `O=P(O)(O)C(F)(F)P(=O)(O)O` [Example 6, trisodium difluoromethanebiphosphonate], in “Solubility in water”, the solubility in water result is on record as “soluble in water”.
Consider `NCCCC(O)(P(=O)(O)O)P(=O)(O)O` [AHBU BP, 4-amino-1-hydroxybutan-1,1-biphosphonic acid], for which the “days of treatment after which painful bone symptoms decreased” value in series [1] was 5 to 8 days. Moreover, the calciuria result in series [1] (two weeks) is on record as “normalization of calciuria”. Also, in series [1] (in five days), the decrease of hydroxyprolinuria is 50-80%. Besides, the “hydroxyprolinuria and alkaline phosphatemia at follow-up” value in series [2] (after 6-8 months) is “normal values of hydroxyprolinuria and alkaline phosphatemia”. The alkaline phosphatemia entry in series [2] (three patients, 4 mg or 0.5 mg per day) is “gradual decrease up to normal values after 3-4 months of therapeutic cycle”. Also, in series [3] (setting [10]), the activity at 2.5 µM came out at 88 ± 1.5%, the activity at 25 µM stood at 79.6 ± 4.1% and the activity at 250 µM was found to be 180 ± 18.6%. The “times superior activity versus AHPrBP (inhibition of bone reabsorption)” value in series [4] (in vivo in rats) is on record as “about 100 times”. Also, the “times more active than Cl2 MDP (inhibition of the bone reabsorption)” value in [5] (clinical, overall conclusion) was 100-300 times. The “activity on the immunity system” value in series [5] (detailed observations in comparison not available yet) is given as “the activity on the immunity system appears to be peculiar to ABDP”. Further, the “times more active than Cl2 MDP” value in [6] (comparison in patients with primary hyperparathyroidism, Cl2 MDP data from Adami et al, 1983) is listed as 20-100 times. Besides, in series [6] (four patients, 4-8 mg/day, 3-4 days), the calcemia and hydroxyprolinuria result is “the decrease of calcemia has been transitory, with the values of calcemia and the hydroxyprolinuria having a tendency to return to the basal values a few days after the suspension of the drug”. The calcemia result in [6] (one case with border line calcemia, 4 mg/day for four days) is “has not caused any variation in the calcemia even if it is accompanied by a persistent reduction in the calcemia”. Also, in series [6] (seven patients with very elevated calcemia, venous infusion), the calcemia result is recorded as “a drastic reduction of calcemia was achieved up to normal values in five of the patients”. Further, the hydroxyprolinuria entry in series [6] (simultaneous with decrease of calcemia) is “rapid and parallel decrease of hydroxyprolinuria”. Also, in [6] (three cases, 25 mg/day for seven days), the calcemia result is recorded as “normalization of calcemia up to the day of surgical intervention”. For the same compound, in series [7] (human, in vivo), the fever after administration result is on record as “not been followed by fever”. In addition, in [7] (setting [11]), the effect of treatment result is reported as “surprisingly every effective” and the “period of remission of the symptoms” value is recorded as “surprisingly long”. Moreover, in the series on skull cells (setting [12]), the activity at 2.5 µM was 100 ± 1.6%, the activity at 25 µM turned out to be 101 ± 1.5% and the activity at 250 µM was determined as 74.2 ± 4.7%.
Regarding `O=P(O)(O)C(F)(F)P(=O)(O)O` [Example 8, lysine difluoromethanebiphosphonate], the solubility in water entry in “Solubility in water” is on record as “very soluble in water”.
For the compound `NCCCCC(O)(P(=O)(O)O)P(=O)(O)O` [AHPE BP, 5-amino-1-hydroxypentan-1,1-biphosphonic acid], the “Effect on the production of lactate ± S.E.M.” value in [3] (250 μM) is recorded as “dead cells”. The activity at 2.5 µM is 93.4 ± 3% in series [3] (Rattus norvegicus, 16 h, 2.5 μM, read-out: Effect on the production of lactate ± S.E.M.) and 103 ± 2.8% in the series with skull cells (Rattus norvegicus, 2.5 μM, read-out: Effect on the cellular number ± S.E.M.). In addition, the activity at 25 µM in series [3] (Rattus norvegicus, 16 h, 25 μM, read-out: Effect on the production of lactate ± S.E.M.) is 354 ± 27.7%; in the series with skull cells (Rattus norvegicus, 25 μM, read-out: Effect on the cellular number ± S.E.M.), 42.6 ± 5.1%. For the same compound, the metaphysical density in series [4] (0.01 mg P/kg s.c., s.c. NaCl controls 29.72) is 37.85 % volume of calcified tissue; in series [4] (0.1 mg P/kg s.c., s.c. NaCl controls 29.72), 50.44 % volume of calcified tissue; in series [4] (1.0 mg P/kg s.c., s.c. NaCl controls 29.72), 56.47 % volume of calcified tissue; in series [4] (2.0 mg P/kg p.o., p.o. NaCl controls 28.45), 38.70 % volume of calcified tissue. Besides, the “necrosis at the injection sites” value with injection sites / skin (0.01 mg P/kg, 1 day) is on record as “.0”; in the series on injection sites / skin (0.01 mg P/kg, 2 day), “.0”; in the series on injection sites / skin (0.01 mg P/kg, 3 day), “.0”; with injection sites / skin (0.01 mg P/kg, 4 day), “.0”; in the series with injection sites / skin (0.01 mg P/kg, 5 day) it was “.0”; in the series on injection sites / skin (0.01 mg P/kg, 6 day), “.0”. The “necrosis at the injection sites” value with injection sites / skin (0.01 mg P/kg, 7 day) was “.0”; in the series on injection sites / skin (0.1 mg P/kg, 1 day) it was “.0”; with injection sites / skin (0.1 mg P/kg, 2 day), “.0”; in the series on injection sites / skin (0.1 mg P/kg, 3 day), “.0”; in the series with injection sites / skin (0.1 mg P/kg, 4 day) it was “.0”; with injection sites / skin (0.1 mg P/kg, 5 day) it was “.0”. Also, the “necrosis at the injection sites” value is given as “.0” in the series with injection sites / skin (0.1 mg P/kg, 6 day); “.0” in the series on injection sites / skin (0.1 mg P/kg, 7 day); “.0” in the series on injection sites / skin (1 mg P/kg, 1 day); “.0” with injection sites / skin (1 mg P/kg, 2 day); “.0” in the series with injection sites / skin (1 mg P/kg, 3 day); “.0” in the series on injection sites / skin (1 mg P/kg, 4 day). In addition, the “necrosis at the injection sites” value in the series with injection sites / skin (1 mg P/kg, 5 day) is reported as “.0”; with injection sites / skin (1 mg P/kg, 6 day), “.0”; with injection sites / skin (1 mg P/kg, 7 day), “.0”; in the series with injection sites / skin (10 mg P/kg, 1 day), “xxx”; with injection sites / skin (10 mg P/kg, 2 day) it was “xxx”. For the same compound, the “Effect on the cellular number ± S.E.M.” value with skull cells (250 μM) was “dead cells”. For the same compound, the “effect on bone reabsorption, in words” value in [8] (rat, in vivo) is “the most active in inhibiting the bone reabsorption”. For the same compound, the “toxicity during the bone reabsorption experiment” value in series [8] (s.c., 10 mg of P/kg / higher dosage) was “Experiment interrupted due to acute toxicity; also recorded: a toxicity at the higher dosage”. Besides, the LD50 in “in vivo” (ip) is 75 mg/kg; in “in vivo” (iv), 85 mg/kg; in the series “in vivo” (po, os) it was 1500 mg/kg. The “product Ca++ × Pi in solution after incubation” value in [9] (0.05 μM) was 36.7; in series [9] (0.25 μM) it was 37.1; in [9] (0.5 μM), 68.6; in series [9] (2.5 μM) it was 94.0; in series [9] (5.0 μM), 97.5.
